Measured values taken from patent US20200308550A1, “TUMOR ORGANOID MODEL” (IMBA - INSTITUT FÜR MOLEKULARE BIOTECHNOLOGIE GMBH, priority 2017, published 2020).

Tested on: GBM-1 neoplastic organoids including firefly luciferase
Assay: Luciferase assay-based drug testing on neoplastic organoids
Format: cell-based, human
Settings: 1 μM, forty days after drug treatment, vs DMSO
Description: FIG. 13. […] Normalized luciferase activity was presented. Statistical analysis of quantifications was performed using one-way ANOVA with Dunnett's test. **, p<0.01.
For drug testing, neoplastic organoids were first grown for 2 months, followed by drug treatment for 40 days. […] After drug treatment, neoplastic organoids were trypsinized for single cell preparation, followed by FACS sorting analysis. Total cell numbers were counted to evaluate the cytotoxicity of the drugs.
In an effort toward adapting this method for large scale screening, we modified the neoplastic cerebral organoid system to include firefly luciferase for measurement of tumor size (FIG. 13a).

SMILES	relative firefly luciferase activity (tumor size)
CCOc1cc2ncc(C#N)c(Nc3ccc(F)c(Cl)c3)c2cc1NC(=O)/C=C/CN(C)C [Pelitinib]	only non-significant effects
COc1cc2ncnc(Nc3ccc(F)c(Cl)c3)c2cc1OCCCN1CCOCC1 [Gefitinib]	only non-significant effects
C=CC(=O)Nc1cc2c(Nc3ccc(F)c(Cl)c3)ncnc2cc1OCCCN1CCOCC1 [Canertibib, Canertinib]	only non-significant effects
C#Cc1cccc(Nc2ncnc3cc(OCCOC)c(OCCOC)cc23)c1 [Erlotinib]	significantly reduced firefly luciferase activity
